Like-named read-outs stand apart in the source and are kept apart here.

For test [1], the system named is NMDA receptor. The test is described as follows: [3H]MK-801 binding assay, NMDA receptors in guinea pig brain membranes. As to conditions: for Relative affinity: compared to that of Memantine; for Ki: read-out: Ki. On the procedure:
Hartley guinea pigs were sacrificed, and their brains were quickly removed and weighed. The brains then were homogenized in 50 mM Tris HCl buffer, pH 7.7, using a Polytron homogenizer. The homogenate was centrifuged at 40,000×g for 15 min, rehomogenized, and centrifuged again. The final pellet was resuspended in Tris-HCl, pH 7.7, at a final concentration of 6.67 mg original wet weight of tissue/ml. […] The samples were then filtered through glass fiber filters on a Tomtec cell harvester. The filters were washed 3 times with 3 ml of cold buffer. Filters were dried overnight and counted next day on a Wallac Betaplate Reader.
The binding experiments were conducted as follows. […] For each compound, graphs were prepared containing individual competition curves obtained for that compound. IC50 values and Hill coefficients were calculated using the program Prism. Ki values were calculated using the Chang Prusoff transformation: Ki=IC50/(1+L/Kd)
where L is radioligand concentration and Kd is the binding affinity of the radioligand, as determined previously by saturation analysis. […] In each experiment, one standard compound was simultaneously run on each 96 well plate.

Test [2] deals with NMDA receptor. The test is described as follows: Whole-cell voltage-clamp recordings of NMDA evoked currents in hypocretin neurons (hypothalamic slices). It counts as cell-based, mouse. Particulars: bath application, -60 mV, mean±SEM.
Test [3] has as its system primary neurons from rat cerebral cortex. Briefly: NMDA-induced LDH release assay in primary cortical neurons (neuroprotection). It counts as cell-based. The procedure:
The neuroprotective properties of drugs have been studied in vitro, using neurons cultured from cortex, cerebellum or retina. […] Neurotoxicity is determined in this assay by measuring lactate dehydrogenase (LDH), a method which is simple, accurate and reproducible. We conducted pilot studies to test if poly-lysine-coated plates would be suitable as a matrix upon which to plate fetal neurons, compared to astrocyte-coated plates. We also compared the use of growth medium to neurobasal medium supplemented with B27 in the pilot experiments. The concentrations of NMDA (300-500 μM), glycine (10-50 μM), and memantine (10-100 μM) were varied, and optimum concentrations and times determined from these pilot studies were then chosen for the main study. The assay is described below.
Fetal rat neocortical cells were cultured on a mouse astroglial feeder layer. To obtain mouse astroglial cells for the feeder layer, cortices were harvested from 1-day old Swiss Webster mice (Charles River, Hollister, Calif.) according to the procedure described by Rose et al (1993). After dissecting cortices in ice-cold dissecting medium, they were minced and incubated in 0.09% trypsin in media stock for 1 hr, followed by resuspension in growth medium containing 10% equine serum and 10% fetal bovine serum. A single-cell suspension was obtained by triturating through fire-bored glass pipettes, and the resulting cell suspension was plated at a density of 0.5-0.75 hemispheres/24-well plate/9.6 ml, with 0.4 ml/well. Plates were incubated in a humidified incubator at 37° C., 5% CO2. Astroglial cells become confluent in about 2-3 weeks, at which time these cultures are ready to be used as feeder layers upon which neuronal cultures can be plated. Neuronal cells were obtained from gestational Sprague-Dawley rats E16-E18, using a similar dissection procedure. Rat embryos were dissected to obtain cortical tissue, which was plated as a single-cell suspension at a density of 1.4 hemispheres/24-well plate/9.6 ml, with 0.4 ml/well. These cells were plated on the existing astroglial feeder layer, and were incubated at 37° C., 5% CO2. After 5 days in culture, cytosine arabinoside (10 μM) was added to the wells to inhibit glial cell proliferation, and after 24 hours, the medium was replaced with fresh growth medium. Cells were fed with fresh growth medium every 2 days, until the experiments were performed. For coating plates with poly-lysine, we used poly-d-lysine hydrobromide (Sigma Cat # P7280) at a concentration of 0.1 mg/ml to coat each well using a minimum volume of 0.2 ml/well. After coating for 5 minutes, the solution was aspirated and wells were rinsed thoroughly with sterile tissue culture grade water. After drying for 2 hours, plates were ready for use. Neuronal cultures were plated onto poly-lysine-coated plates at the same density as above. For the pilot study, some of the cultures were fed with 1:1 ratio of growth medium: neurobasal medium (GIBCO)+B-27 supplement (2%), while the rest of the cultures were fed with growth medium alone (Losi et al., 2006). For the main study, we used astroglial feeder layers to plate the neuronal cultures, and used a mix (1:1) of growth medium with neurobasal medium+B-27 supplement for feeding the cultures.
After 11-14 days in culture, neuronal cells were confluent and experiments were performed. Cells were washed twice using sterile Locke's buffer (154 mM NaCl, 5.6 mM KCl, 2.3 mM CaCl2, 3.6 mM NaHCO3, 5.5 mM D-glucose, 5 mM HEPES, pH 7.4), and then exposed to the various treatment compounds. […] After 15 minutes, cultures were washed twice and incubated overnight in media stock. After 24 hours, supernatants and lysates were collected to measure LDH activity. LDH activity was measured by the reduction of NAD, which was utilized in the stoichiometric conversion of a tetrazolium dye using a kit (Sigma TOX-7). Supernatants were removed from the wells and centrifuged before LDH measurements. The adherent cells were lysed to obtain total LDH. […]
In general terms: LDH in the medium is a marker of cell lysis.

Setting [4] is: guinea pig brain membrane preparation (Table 29).
Setting [5] is: NMDA 300 μM + 10 μM glycine, astrocyte-coated rat neurons, GM/NB + B-27 fed, 21 hour incubation.
Setting [6] is: NMDA 300 μM + 10 μM glycine, poly-lysine-coated rat neurons, GM/NB + B-27 fed, 40 hour incubation.
The mark [7] stands for this setting: NMDA 300 uM + 50 uM glycine, astrocyte-coated rat neurons, GM/NB + B-27 fed, 24 hour incubation.
Setting [8] is: NMDA 300 uM + glycine 50 uM, Plate #4, poly-lysine-coated rat neurons, GM/NB + B-27 fed, 24 hour incubation.
Where [9] appears, read: NMDA 300 uM + glycine 50 uM, Plate #5, astrocyte-coated rat neurons, GM fed, 24 hour incubation.
Where [10] appears, read: NMDA 300 μM - 21 hr, astrocyte-coated rat neurons, GM/NB + B-27 fed, 21 hour incubation.
Setting [11] is: NMDA 300 uM - 40 hr, poly-lysine-coated rat neurons, GM/NB + B-27 fed, 40 hour incubation.
[12] abbreviates: NMDA 500 μM + 10 μM glycine, astrocyte-coated rat neurons, GM/NB + B-27 fed, 21 hour incubation.
The mark [13] stands for this setting: NMDA 500 uM + 10 uM glycine, poly-lysine-coated rat neurons, GM/NB + B-27 fed, 40 hour incubation.
Where [14] appears, read: NMDA 500 μM - 21 hr, astrocyte-coated rat neurons, GM/NB + B-27 fed, 21 hour incubation.
[15] abbreviates: NMDA 500 uM - 40 hr, poly-lysine-coated rat neurons, GM/NB + B-27 fed, 40 hour incubation.

The term Ki denotes the equilibrium dissociation constant of an inhibitor or competing ligand from its target. For the compound `NC12CC3C4CC5CC3C(C1)C(C5)C4C2` [MDT-3], the Relative affinity in test [1] is 0.021. In addition, in test [1] (setting [4]), the Ki turned out to be 34.6 ± 3.7 µM. The “inhibition of the peak amplitude of NMDA evoked currents” value in test [2] (10 μM) and in test [2] (100 μM) was “did not produce inhibition” each time.
On to `CC12CC3(N)CC4C1CC1CC2C(N)(C3)C4(C)C1` (centres unmarked) [MDT-9, 1,6-dimethyl-2,4-diaminodiamantane], for which, in test [1], the Relative affinity is listed as 0.032. For the same compound, in test [1] (setting [4]), the Ki was determined as 22.5 ± 0.9 µM. The “inhibition of the peak amplitude of NMDA evoked currents” value in test [2] (10 μM) came to 13.2±9%; in test [2] (100 μM), 15.2±4.8%.
With `CN[C@H](CC(=O)O)C(=O)O` [NMDA], the inhibitory constant (Ki) in test [1] (standard compounds at the NMDA site (Table 27)) turned out to be 596 µM. Also, the “% (Control Wash = 100)” value was 144% in test [3] (setting [5]); 116% in test [3] (setting [6]); 271% in test [3] (setting [7]); 163% in test [3] (setting [8]); 109% in test [3] (setting [9]); 166% in test [3] (setting [10]). Besides, the “% (Control Wash = 100)” value stood at 127% in test [3] (setting [11]); 139% in test [3] (setting [12]); 114% in test [3] (setting [13]); 147% in test [3] (setting [14]); 125% in test [3] (setting [15]). The “Secreted LDH (Avg)” value in test [3] (setting [5]) was determined as 0.44; in test [3] (setting [6]), 0.39; in test [3] (setting [7]) it was 0.76; in test [3] (setting [8]) it was 0.69; in test [3] (setting [9]), 0.20; in test [3] (setting [10]), 0.52. In addition, the “Secreted LDH (Avg)” value in test [3] (setting [11]) is listed as 0.45; in test [3] (setting [12]), 0.51; in test [3] (setting [13]), 0.44; in test [3] (setting [14]) it was 0.51; in test [3] (setting [15]), 0.48. Further, the “Secreted/(total + secreted) (Avg)” value in test [3] (setting [5]) stood at 11.95; in test [3] (setting [6]), 13.33; in test [3] (setting [7]) it was 19.61; in test [3] (setting [8]), 17.79; in test [3] (setting [9]) it was 6.37; in test [3] (setting [10]) it was 13.82. Moreover, the “Secreted/(total + secreted) (Avg)” value in test [3] (setting [11]) is 14.55; in test [3] (setting [12]), 11.56; in test [3] (setting [13]) it was 13.07; in test [3] (setting [14]), 12.23; in test [3] (setting [15]) it was 14.35. The “Total LDH (Avg)” value in test [3] (setting [5]) is recorded as 3.25; in test [3] (setting [6]) it was 2.56; in test [3] (setting [7]) it was 3.10; in test [3] (setting [8]), 3.19; in test [3] (setting [9]) it was 2.90; in test [3] (setting [10]) it was 3.22. In addition, the “Total LDH (Avg)” value came out at 2.61 in test [3] (setting [11]); 3.91 in test [3] (setting [12]); 2.92 in test [3] (setting [13]); 3.65 in test [3] (setting [14]); 2.91 in test [3] (setting [15]).

Values taken from patent US20080009546A1 (Chevron U.S.A. Inc., priority 2005, published 2008).
